Laboratory results taken from US20260097036A1 (Kadmon Corporation, LLC, priority 2022, published 2026).
Where two headings read alike, the source gives them in different places.

How the values were obtained:
[1] = solubility and natural pH of the API; format: physicochemical
[2] = excipient compatibility testing of dry binary mixes; format: physicochemical; settings: binary mixes 1:1; 2-8° C. and 40° C./75% RH, over a 14-day period
Description: The dry binary mixes were analyzed for appearance and related substances after storage at 2-8° C. (control storage condition) and 40° C./75% RH for 14 days and 28 days. The binary mixes were also tested for visual appearance at initial mixing.

[3] = stability study with pH modifiers, XRPD of isolated solids (samples 2.1-2.6); format: physicochemical; settings: T = 28 days 40° C./75% RH
Description: Samples were prepared containing sodium benzoate as a preservative and with the pH adjusted with either citric acid or tartaric acid which were compared with samples having no pH modifier.
The above samples were prepared for XRPD analysis in three steps: solids were isolated by centrifugation at 3000 rpm for 20 minutes; the supernatant was decanted; and the samples were dried under vacuum at ambient temperature for 18-24 hours overnight. XRPD data of the solid samples was obtained.

[4] = Part 2 relative bioavailability and food effect, plasma PK; format: in vivo, human; settings: for Tlag / AUC % extrap / Lambda-z / half-life / Tmax / AUC(0-inf) / AUC(0-t) / Cmax / Vd/F: plasma; for half-life / Tmax / AUC(0-inf) / AUC(0-t) / Cmax / Vd/F: male, human, 200 mg; for Cmax: read-out: Cmax; for Vd/F: read-out: Vz/F
Description: Subjects underwent preliminary screening procedures to determine their eligibility for Part 2 of the study at the screening visit (Day −28 to Day −2 of Part 2). Subjects who took part in Part 1 of the study were permitted to take part in Part 2.
Three different regimens (G, H, and I), were used over the three periods. In Regimen G, belumosudil was administered in Tablet form (reference); and in Regimens H and I, belumosudil was administered in the form of Oral Liquid Formulation.
In Period 1, Day 1: subjects were randomized prior to administration of the first dose of IMP to 1 of 6 treatment sequences (GHI, HIG, IGH, IHG, GIH and HGI) with 3 subjects assigned to each treatment sequence. On Day 1 of each study period (periods 1, 2 and 3), subjects received the regimens in Table 36:
Regimen H was administered to subjects as a flavorless low sucralose liquid formulation in a fasted state, and Regimens G and I were administered to subjects in a fed state. Regimen G was administered with a total of 240 mL of water. For Regimens H and I, immediately after IMP administration, subjects consumed water to a total volume of 240 mL (including the dosing volume).
Subjects received a single dose of IMP in the morning of Day 1 following an overnight fast of a minimum of 10 h (Regimen H, fasted state) or following a standard breakfast (Regimens G and I, fed state). Blood samples were collected at regular intervals for PK analysis. Following administration of Regimen H, subjects completed a written taste/palatability questionnaire individually and privately.
Subjects were resident in the clinical unit for 10 consecutive nights that covered all 3 treatment periods. All subjects remained on site until 72 h post-final dose for safety and PK assessments. There was a minimum washout of 3 days between each IMP administration. To ensure the ongoing wellbeing of the subjects, a follow-up phone call took place 3 to 7 days post-final dose. If a subject reported any AEs after discharge which represented a cause for concern, they were required to attend the clinical unit for a follow-up assessment. This would have been an unscheduled visit.

pro-fibrotic signaling = settings: in vitro; cited from earlier work
animal models of cGVHD = settings: in vivo; cited from earlier work
[5] = cited from earlier work
[6] = po, Regimen G: 200 mg Tablet, Fed, single oral dose, geometric mean (CV%)
[7] = po, Regimen H: 200 mg Liquid Formulation, Fasted, single oral dose, geometric mean (CV%)
[8] = po, Regimen I: 200 mg Liquid Formulation, Fed, single oral dose, geometric mean (CV%)

natural pH of API in water ([1]; API in water): ~3 pH | solubility ([1]; at pH 2.0-3.0): soluble | compatibility with hydrochloric acid and maleic acid [2]: not compatible | XRPD of isolated solids (form stability) [3]: stable in the formulation | Tlag ([4]; Regimen G: 200 mg Tablet, Fed, single oral dose, healthy male volunteers, median (range)): 0.500 h | AUC % extrap ([4]; Regimen G: 200 mg Tablet, Fed, single oral dose, geometric mean (CV%)): 2.601 (44.8%) | Lambda-z ([4]; Regimen G: 200 mg Tablet, Fed, single oral dose, geometric mean (CV%), individual values where n <= 2): 0.074 (57.7%) l/h | Tlag ([4]; Regimen H: 200 mg Liquid Formulation, Fasted, single oral dose, healthy male volunteers, median (range)): 0.00 h | AUC % extrap ([4]; Regimen H: 200 mg Liquid Formulation, Fasted, single oral dose, geometric mean (CV%)): 2.785 (50.4%) | Lambda-z ([4]; Regimen H: 200 mg Liquid Formulation, Fasted, single oral dose, geometric mean (CV%), individual values where n <= 2): 0.073 (43.5%) l/h | Tlag ([4]; Regimen I: 200 mg Liquid Formulation, Fed, single oral dose, healthy male volunteers, median (range)): 0.00 h | AUC % extrap ([4]; Regimen I: 200 mg Liquid Formulation, Fed, single oral dose, geometric mean (CV%)): 1.918 (34.9%) | Lambda-z ([4]; Regimen I: 200 mg Liquid Formulation, Fed, single oral dose, geometric mean (CV%), individual values where n <= 2): 0.102 (49.2%) l/h | time from which concentrations were evident ([4]; liquid formulation, fasted and fed (Regimens H and I)): 0.5 h | half-life ([4]; oral, Regimen G, tablet fed, read-out: elimination half-lives (range)): 4.84 to 33 h | half-life ([4]; oral, Regimen H, liquid formulation fasted, read-out: elimination half-lives (range)): 5.36 to 23.8 h | half-life ([4]; oral, Regimen I, liquid formulation fed, read-out: elimination half-lives (range)): 2.38 to 15.7 h | half-life ([4]; oral, Regimens G, H, I, read-out: geometric mean half-life (range over regimens)): 6.79 to 9.5 h | Tmax ([4]; po, Regimen G: 200 mg Tablet, Fed, single oral dose, healthy male volunteers, median (range), read-out: Tmax): 3 h | AUC(0-inf) [4, 6]: 10200 ng·h/mL | half-life ([4]; po, Regimen G: 200 mg Tablet, Fed, single oral dose, geometric mean (CV%), individual values where n <= 2, read-out: T1/2 (converted)): 9.39 h | AUC(0-t) ([4]; po, Regimen G: 200 mg Tablet, Fed, single oral dose, geometric mean (CV%), read-out: AUC (0-24)): 9310 ng·h/mL | AUC(0-t) ([4]; po, Regimen G: 200 mg Tablet, Fed, single oral dose, geometric mean (CV%), read-out: AUC (0-last)): 9720 ng·h/mL | Cmax [4, 6]: 1930 ng/mL | Vd/F [4, 6]: 265 L | Tmax ([4]; po, Regimen H: 200 mg Liquid Formulation, Fasted, single oral dose, healthy male volunteers, median (range), read-out: Tmax): 1.5 h | AUC(0-inf) [4, 7]: 8430 ng·h/mL | half-life ([4]; po, Regimen H: 200 mg Liquid Formulation, Fasted, single oral dose, geometric mean (CV%), individual values where n <= 2, read-out: T1/2 (converted)): 9.5 h | AUC(0-t) ([4]; po, Regimen H: 200 mg Liquid Formulation, Fasted, single oral dose, geometric mean (CV%), read-out: AUC (0-24)): 7620 ng·h/mL | AUC(0-t) ([4]; po, Regimen H: 200 mg Liquid Formulation, Fasted, single oral dose, geometric mean (CV%), read-out: AUC (0-last)): 8010 ng·h/mL | Cmax [4, 7]: 1550 ng/mL | Vd/F [4, 7]: 325 L | AUC(0-inf) [4, 8]: 9500 ng·h/mL | half-life ([4]; po, Regimen I: 200 mg Liquid Formulation, Fed, single oral dose, geometric mean (CV%), individual values where n <= 2, read-out: T1/2 (converted)): 6.79 h | AUC(0-t) ([4]; po, Regimen I: 200 mg Liquid Formulation, Fed, single oral dose, geometric mean (CV%), read-out: AUC (0-24)): 9340 ng·h/mL | AUC(0-t) ([4]; po, Regimen I: 200 mg Liquid Formulation, Fed, single oral dose, geometric mean (CV%), read-out: AUC (0-last)): 9570 ng·h/mL | Cmax [4, 8]: 1790 ng/mL | Vd/F [4, 8]: 206 L | Tmax ([4]; po, single oral 200 mg as liquid formulation, fasted state, read-out: median Tmax): 1.5 h | Tmax ([4]; po, single oral 200 mg as tablet reference, fed, read-out: median Tmax): 3 h
Structure (SMILES): CC(C)NC(=O)COc1cccc(-c2nc(Nc3ccc4[nH]ncc4c3)c3ccccc3n2)c1 [Belumosudil, 2-{3-[4-(1H-indazol-5-ylamino)-2-quinazolinyl]phenoxy}-N-(propan-2-yl)acetamide, reference compound]
peak (Cmax) and total exposure (AUC), liquid formulation vs tablet ([4]; both in the fed state, GMR comparison): largely similar to that of the tablet reference | aberrant pro-fibrotic signaling (pro-fibrotic signaling): inhibited aberrant pro-fibrotic signaling | activity in animal models of cGVHD (animal models of cGVHD): demonstrated activity | solubility in water [5]: practically insoluble
